Data taken from patent publication US20110158980A1, “METHODS TO TREAT AND SCREEN FOR AGENTS TO TREAT OBESITY” (TRUSTEES OF TUFTS COLLEGE, priority 2008, published 2011).

Tested on: 3T3-L1 adipocytes
Test: Metabolic flux analysis (stoichiometric model) of adipocyte intermediary metabolism
Type: cell-based
Procedure: 3T3-L1 preadipocytes were plated onto 24-well plates and expanded in preadipocyte growth medium consisting of DMEM supplemented with calf serum (10% v/v), penicillin and streptomycin. Medium was replenished every other day. Two days post-confluence, the cells were induced to differentiate using an adipogenic cocktail (1 μg/ml insulin, 0.5 mM isobutylmethylxanthine, and 1 μM dexamethasone) added to a basal medium (DMEM with 10% fetal bovine serum and penicillin/streptomycin). After 48 hrs, the first medium was replaced with a second induction medium consisting of the basal adipocyte medium supplemented with only insulin. […] This basal medium was replenished every other day during the remainder of the culture experiments.
A stoichiometric model of adipocyte central carbon metabolism was constructed as described previously (Si Y, Yoon J, Lee K. American journal of physiology 2007; 292:E1637-46). The model consisted of the major pathways of central carbon metabolism (Table 1). Intracellular fluxes were estimated by solving a constrained non-linear optimization problem with stoichiometric and thermodynamic constraints (Nolan R P, Fenley A P, Lee K. Metab Eng 2006; 8:30-45).

With O=C(O)Cc1ccccc1 [phenylacetate] the Increase of lipolysis (5 mM PA) was 1.2 fold, the “Decrease of citrate transport out of the mitochondria” value (5 mM phenylacetate) was 40% and the “Decrease of pyruvate carboxylase flux” value (5 mM phenylacetate) was 23%. The Increase of lipolysis (10 mM PA) was 1.4 fold, the “Calculated CO2 output lower” value (10 mM phenylacetate) was 23% and the “Decrease of PDC flux” value (10 mM phenylacetate) was 27%. For the same compound, the “Decrease of citrate transport out of the mitochondria” value (10 mM phenylacetate) was 46%, the “Decrease of pyruvate carboxylase flux” value (10 mM phenylacetate) was 33% and the “Flux RXN 1 Glycolysis: Glucose + ATP = Glucose 6-P + ADP” value (PA 5 mM, day 12 post-induction) was 367.0 ± 17.6 mmol/g-DNA/2 days. For the same compound, the “Flux RXN 2 Glycolysis: Glucose 6-P = Fructose 6-P” value (PA 5 mM, day 12 post-induction) was 359.9 ± 23.3 mmol/g-DNA/2 days, the “Flux RXN 3 Glycolysis: Fructose 6-P + ATP = Glyceraldehyde 3-P + Glycerone-P + ADP” value (PA 5 mM, day 12 post-induction) was 364.7 ± 19.3 mmol/g-DNA/2 days and the “Flux RXN 4 Glycolysis: Glycerone-P = Glyceraldehyde 3-P” value (PA 5 mM, day 12 post-induction) was 342.7 ± 18.4 mmol/g-DNA/2 days. The “Flux RXN 5 Glycolysis: Glyceraldehyde 3-P + NAD+ + ADP + Pi = P-Enolpyruvate + ATP + H2O” value (PA 5 mM, day 12 post-induction) was 709.8 ± 35.8 mmol/g-DNA/2 days, the “Flux RXN 6 Glycolysis: P-Enolpyruvate + ADP + H+ = Pyruvate + ATP” value (PA 5 mM, day 12 post-induction) was 784.6 ± 35.5 mmol/g-DNA/2 days and the “Flux RXN 7 Glycolysis: Pyruvate + NADH + H+ = Lactate + NAD+” value (PA 5 mM, day 12 post-induction) was 410.4 ± 19.1 mmol/g-DNA/2 days. For the same compound, the “Flux RXN 8 Pentose phosphate pathway: Glucose 6-P + 2 NADP+ + H2O = Ribulose 5-P + CO2 + 2 NADPH + 2 H+” value (PA 5 mM, day 12 post-induction) was 7.1 ± 7.8 mmol/g-DNA/2 days, the “Flux RXN 9 Pentose phosphate pathway: 3 Ribulose 5-P = 2 Fructose 6-P + Glyceraldehyde 3-P” value (PA 5 mM, day 12 post-induction) was 2.4 ± 2.6 mmol/g-DNA/2 days and the “Flux RXN 10 TCA cycle (mitochondria) (PDC)” value (PA 5 mM, day 12 post-induction) was 312.7 ± 48.2 mmol/g-DNA/2 days. The “Flux RXN 11 TCA cycle (mitochondria) (PC)” value (PA 5 mM, day 12 post-induction) was 141.4 ± 13.2 mmol/g-DNA/2 days, the “Flux RXN 12 TCA cycle (mitochondria)” value (PA 5 mM, day 12 post-induction) was 200.9 ± 54.1 mmol/g-DNA/2 days and the “Flux RXN 13 TCA cycle (mitochondria)” value (PA 5 mM, day 12 post-induction) was 237.8 ± 52.0 mmol/g-DNA/2 days. For the same compound, the “Flux RXN 14 TCA cycle (mitochondria)” value (PA 5 mM, day 12 post-induction) was 251.0 ± 52.6 mmol/g-DNA/2 days, the “Flux RXN 15 TCA cycle (mitochondria)” value (PA 5 mM, day 12 post-induction) was 251.2 ± 52.7 mmol/g-DNA/2 days and the “Flux RXN 16 TCA cycle (mitochondria)” value (PA 5 mM, day 12 post-induction) was 171.3 ± 45.2 mmol/g-DNA/2 days. The “Flux RXN 17 TCA cycle: Citrate + CoA + ATP = Acetyl-CoA + Oxaloacetate + ADP + Pi” value (PA 5 mM, day 12 post-induction) was 74.9 ± 9.0 mmol/g-DNA/2 days, the “Flux RXN 18 TCA cycle: Oxaloacetate + NADH + H+ = Malate + NAD+” value (PA 5 mM, day 12 post-induction) was 0.0 ± 0.0 mmol/g-DNA/2 days and the “Flux RXN 19 TCA cycle: Malate + NADP+ = Pyruvate + CO2 + NADPH” value (PA 5 mM, day 12 post-induction) was 79.9 ± 9.7 mmol/g-DNA/2 days. The “Flux RXN 20 TCA cycle: Citrate + NADP+ = 2-Oxoglutarate + CO2 + NADPH + H+” value (PA 5 mM, day 12 post-induction) was 36.9 ± 7.3 mmol/g-DNA/2 days, the “Flux RXN 21 TCA cycle: Oxaloacetate + ATP = P-Enolpyruvate + CO2 + ADP” value (PA 5 mM, day 12 post-induction) was 74.8 ± 9.0 mmol/g-DNA/2 days and the “Flux RXN 22 Oxidative phosphorylation (NADH + 0.5 O2)” value (PA 5 mM, day 12 post-induction) was 527.6 ± 214.3 mmol/g-DNA/2 days. For the same compound, the “Flux RXN 23 Oxidative phosphorylation (FADH2 + 0.5 O2)” value (PA 5 mM, day 12 post-induction) was 272.8 ± 53.3 mmol/g-DNA/2 days, the “Flux RXN 24 Palmitate biosynthesis” value (PA 5 mM, day 12 post-induction) was 9.4 ± 1.1 mmol/g-DNA/2 days and the “Flux RXN 25 Tripalmitoylglycerol biosynthesis: Glycerone-P + 3 Palmitate to Tripalmitoylglycerol” value (PA 5 mM, day 12 post-induction) was 22.0 ± 1.3 mmol/g-DNA/2 days. For the same compound, the “Flux RXN 26 Tripalmitoylglycerol + 3 H2O = Glycerol + 3 Palmitate” value (PA 5 mM, day 12 post-induction) was 19.2 ± 1.4 mmol/g-DNA/2 days, the “Flux RXN 27 Tripalmitoylglycerol accumulation” value (PA 5 mM, day 12 post-induction) was 2.8 ± 0.4 mmol/g-DNA/2 days and the “Flux RXN 28 Metabolism of ketone bodies” value (PA 5 mM, day 12 post-induction) was 8.4 ± 0.3 mmol/g-DNA/2 days. The “Flux RXN 29 Metabolism of ketone bodies” value (PA 5 mM, day 12 post-induction) was 0.0 ± 0.0 mmol/g-DNA/2 days, the “Flux RXN 30 Metabolism of ketone bodies (to 3-Hydroxybutyrate)” value (PA 5 mM, day 12 post-induction) was 17.0 ± 0.6 mmol/g-DNA/2 days and the “Flux RXN 31 Amino acid metabolism: Pyruvate + NH4+ + NADPH = Alanine” value (PA 5 mM, day 12 post-induction) was 0.0 ± 0.0 mmol/g-DNA/2 days. The “Flux RXN 32 Amino acid metabolism: Aspartate + NH4+ = Asparagine” value (PA 5 mM, day 12 post-induction) was 2.3 ± 0.1 mmol/g-DNA/2 days, the “Flux RXN 33 Amino acid metabolism: Aspartate = Oxaloacetate + NH4+ + NADH” value (PA 5 mM, day 12 post-induction) was 0.0 ± 0.0 mmol/g-DNA/2 days and the “Flux RXN 34 Amino acid metabolism: Cysteine = Pyruvate + NH4+ + NADH” value (PA 5 mM, day 12 post-induction) was 0.0 ± 0.0 mmol/g-DNA/2 days. For the same compound, the “Flux RXN 35 Amino acid metabolism: Glutamate = 2-Oxoglutarate + NH4+ + NADH” value (PA 5 mM, day 12 post-induction) was 0.0 ± 0.0 mmol/g-DNA/2 days, the “Flux RXN 36 Amino acid metabolism: Glutamate + NH4+ + ATP = Glutamine” value (PA 5 mM, day 12 post-induction) was 5.3 ± 0.4 mmol/g-DNA/2 days and the “Flux RXN 37 Amino acid metabolism: Serine + THF = Glycine” value (PA 5 mM, day 12 post-induction) was 5.8 ± 0.2 mmol/g-DNA/2 days. For the same compound, the “Flux RXN 38 Amino acid metabolism: Histidine + THF = Glutamate + NH4+” value (PA 5 mM, day 12 post-induction) was 2.7 ± 0.2 mmol/g-DNA/2 days, the “Flux RXN 39 Amino acid metabolism: Isoleucine + 2 CoA” value (PA 5 mM, day 12 post-induction) was 8.1 ± 0.3 mmol/g-DNA/2 days and the “Flux RXN 40 Amino acid metabolism: Leucine + CoA + CO2 + ATP” value (PA 5 mM, day 12 post-induction) was 8.6 ± 0.3 mmol/g-DNA/2 days. The “Flux RXN 41 Amino acid metabolism: Lysine = 2-Oxoadipate + 2 NH4+ + 3 NADH” value (PA 5 mM, day 12 post-induction) was 0.0 ± 0.0 mmol/g-DNA/2 days, the “Flux RXN 42 Amino acid metabolism: 2-Oxoadipate + CoA” value (PA 5 mM, day 12 post-induction) was 0.0 ± 0.0 mmol/g-DNA/2 days and the “Flux RXN 43 Amino acid metabolism: Methionine + Serine + ATP + CoA + THF” value (PA 5 mM, day 12 post-induction) was 0.0 ± 0.0 mmol/g-DNA/2 days. The “Flux RXN 44 Amino acid metabolism: Phenylalanine + O2 + NADH = Tyrosine” value (PA 5 mM, day 12 post-induction) was 0.0 ± 0.0 mmol/g-DNA/2 days, the “Flux RXN 45 Amino acid metabolism: Glutamate + ATP + 2 NADPH = Proline” value (PA 5 mM, day 12 post-induction) was 0.0 ± 0.0 mmol/g-DNA/2 days and the “Flux RXN 46 Amino acid metabolism: Serine = Pyruvate + NH4+” value (PA 5 mM, day 12 post-induction) was 0.0 ± 0.0 mmol/g-DNA/2 days. For the same compound, the “Flux RXN 47 Amino acid metabolism: Threonine + CoA to Glycine” value (PA 5 mM, day 12 post-induction) was 0.1 ± 0.1 mmol/g-DNA/2 days, the “Flux RXN 48 Amino acid metabolism: Tryptophan + 3 O2 + NADPH = 2-Oxoadipate + Alanine + CO2 + NH4+” value (PA 5 mM, day 12 post-induction) was 0.0 ± 0.0 mmol/g-DNA/2 days and the “Flux RXN 49 Amino acid metabolism: Tyrosine + 2 O2” value (PA 5 mM, day 12 post-induction) was 0.2 ± 0.1 mmol/g-DNA/2 days. The “Flux RXN 50 Amino acid metabolism: Valine + CoA” value (PA 5 mM, day 12 post-induction) was 5.1 ± 0.4 mmol/g-DNA/2 days, the “Flux RXN 51 Plasma exchange: Palmitate” value (PA 5 mM, day 12 post-induction) was 1.0 ± 0.1 mmol/g-DNA/2 days and the “Flux RXN 52 Plasma exchange: Acetoacetate” value (PA 5 mM, day 12 post-induction) was 0.2 ± 0.2 mmol/g-DNA/2 days. For the same compound, the “Flux RXN 53 Plasma exchange: Alanine” value (PA 5 mM, day 12 post-induction) was 0.0 ± 0.0 mmol/g-DNA/2 days, the “Flux RXN 54 Plasma exchange: Aspartate” value (PA 5 mM, day 12 post-induction) was 2.3 ± 0.1 mmol/g-DNA/2 days and the “Flux RXN 55 Plasma exchange: Cysteine” value (PA 5 mM, day 12 post-induction) was 0.0 ± 0.0 mmol/g-DNA/2 days. The “Flux RXN 56 Plasma exchange: Glutamate” value (PA 5 mM, day 12 post-induction) was 2.6 ± 0.2 mmol/g-DNA/2 days, the “Flux RXN 57 Plasma exchange: Glycine” value (PA 5 mM, day 12 post-induction) was 5.9 ± 0.2 mmol/g-DNA/2 days and the “Flux RXN 58 Plasma exchange: Serine” value (PA 5 mM, day 12 post-induction) was 5.8 ± 0.2 mmol/g-DNA/2 days. The “Flux RXN 59 Plasma exchange: Tyrosine” value (PA 5 mM, day 12 post-induction) was 0.1 ± 0.1 mmol/g-DNA/2 days, the “Flux RXN 60 Plasma exchange: O2 (calculated oxygen uptake rate)” value (PA 5 mM, day 12 post-induction) was 400.5 ± 134.0 mmol/g-DNA/2 days and the “Flux RXN 61 Plasma exchange: CO2” value (PA 5 mM, day 12 post-induction) was 805.5 ± 145.9 mmol/g-DNA/2 days. For the same compound, the “Flux RXN 62 Plasma exchange: NH4+” value (PA 5 mM, day 12 post-induction) was 17.0 ± 1.0 mmol/g-DNA/2 days, the “Flux RXN 63 Mitochondrial exchange: Pyruvate” value (PA 5 mM, day 12 post-induction) was 454.0 ± 54.4 mmol/g-DNA/2 days and the “Flux RXN 64 Mitochondrial exchange: Malate in, Citrate out” value (PA 5 mM, day 12 post-induction) was 111.7 ± 15.8 mmol/g-DNA/2 days.
